# Source: paper PMC9332833 (Cancers, 2022)
# Entries after “also recorded” stand apart in the source; their conditions may differ.
# Tests used:
# K562 cells [1] = assay: K562 xenogeneic mouse model, tumor growth; assay type: in vivo, NSG mice; conditions: for Tumor weights: mean ± SD, N=4, tumor growth control 9.2±2.1
# Experimental: Statistical analysis was performed using GraphPad Prism version 9.1.0. All in vitro experiments were performed in at least triplicate biological replicates and statistical results are expressed as mean ± standard deviation (SD). Statistical data of animal experiments are expressed as mean ± standard error of the mean (SEM). For experiments involving patients, the normality of the distribution was checked using the Shapiro–Wilk test and the statistical analysis was performed using one-way ANOVA with Dunnett’s post-test * p < 0.05, ** […], *** 0.001 > p > 0.0001, **** p < 0.0001.
# Table S3. […] Control and
# IP, intraperitoneal administration; O, orally
# [2] = Blood morphology in K562 xenograft mice; conditions: for GRA / MON / HGB / WBC / MPV / RBC / RDW / MCH / MCHC / HCT / MCV / LYMP: N=4; for GRA / MON / LYMP: standard range 0.0-99.0; for HGB: standard range 1.1-18; for WBC: standard range 3.0-15; for MPV: standard range 4.6-7.3; for RBC: standard range 5.0-12; for RDW: standard range 11.5-14.5; for MCH: standard range 12-24.5; for MCHC: standard range 21.6-42; for HCT: standard range 36-52; for MCV: standard range 44-69
# Experimental: Eight-week-old female NOD.Cg-Prkdcscid Il2rgtm1Wjl/SzJ NSG mice (Jackson Laboratory, Bar Harbor, ME, USA) were injected subcutaneously into the dorsal fold with 1 × 10^6 K562 cells of the human chronic myeloid leukemia (CML) line in a final volume of 100 µL (0.5% of the mouse weight). On day 3 after cell administration, mice were randomly assigned to each group, and on days 4–17 of the experiment, the selected tested compounds and control solutions were administered intraperitoneally or orally. During the experiment, subcutaneous tumors and body weight were measured daily. Tumor growth during the experiment was measured with an electronic display caliper. The theoretical tumor volume [mm], was calculated according to the formula (a^2 × b) * 0.5, where a is the shorter tumor axis [mm] and b is the longer tumor axis [mm]. On day 26, the experiment was terminated: blood was collected and analyzed for cellular morphology and standard biochemistry metabolites. Tumors were weighed.
# Control and treated mice were grouped according to the tested compounds and the scheme of their administrations (doses, administration frequencies, routes of administration) in the CML xenogeneic model obtained by subcutaneous transplantation of 1 × 10^6 cells of the human CML blast line K562 into mice NOD.Cg-Prkdcscid Il2rgtm1Wjl/SzJ (NSG).
# Hydroxyurea K562 500 mg/kg, IP Aqua pro 1 x daily 8
# K562-MDR1 cells [3] = assay: P-glycoprotein (CD243)/propidium iodide flow cytometry; assay type: cell-based, human
# Experimental: BK124.1 or DMSO were added to cells and after 24 h incubation cells were harvested and stained with FITC Mouse Anti-Human P-glycoprotein (CD243) clone 17F9 (BD, Franklin Lakes, NJ, USA) or an appropriate isotype control. Propidium iodide was added to […]. Cells were analyzed on a BD FACSCalibur flow cytometer using CellQuest software (BD, Franklin Lakes, NJ, USA). […]
# Flow cytometry analysis of CD243 (P-glycoprotein)
# Cells were seeded at a concentration of 1-2 × 10^5 cells/mL in a 6- or 24-well plate. After 24 hours of pre-incubation, DMSO or test compounds in DMSO were added. The cells were then incubated for 24 hours. After this time, cells were harvested, washed with 0.5% BSA in PBS (Mg2+ and Ca2+ free), and labeled for 30 minutes on ice with FITC Mouse Anti-Human P-glycoprotein (CD243) clone 17F9 (BD, Franklin Lakes, NJ, USA) or an appropriate isotype control. Following incubation with the antibody, cells were stained with propidium iodide, washed with PBS and a nalyzed on a BD FACSCalibur flow cytometer using CellQuest software (BD, Franklin Lakes, NJ, USA). […]
# HUVEC = test system: HUVEC; design: method as in PMID 26902600, PMID 31487824; conditions: cited from earlier work
# [4] = Pharmacokinetics in Balb/c nude mice; assay type: in vivo; conditions: for MRT last / half-life / AUC(0-inf) / C0: Balb/c nude; for AUC(0-inf): extrapolated to infinity; for C0: extrapolated to t = 0
# Experimental: Eight-week-old female Balb/c nude mice were randomly divided into test groups and injected with BK124.1 either intraperitoneally, at 20 mg/kg or 40 mg/kg concentrations, or intravenously at 20 mg/kg concentration. The compound blood concentration was measured 15 min, 6, 12, and 24 h post-injection. For each time point, 4 mice were sacrificed. BK124.1 concentration in the bloodstream was analyzed using mass spectrometry. Toxicology was assessed by examining physiological and morphological changes at the injection site, the appearance of internal organs (liver, heart, kidneys, and spleen), blood tests, body mass, and animal behavior.
# K562 cells [5] = assay: K562 in BK124.1 long term experiment (6 months), MDR1 induction; assay type: cell-based, human; conditions: 1 µM or 2 µM for at least 6 months
# K562-MDR1 cells [6] = assay: MTT viability test, K562-MDR1; assay type: cell-based, human; conditions: Homo sapiens; MTT, 48 h
# Text: The K562-MDR1 cell line was developed using increasing concentrations of the commonly used antimitotic drug vincristine on a polyclonal K562 population, as described earlier. […] The DMSO concentration in the culture was 0.1%. The vincristine dose was doubled every 2–3 weeks (at least twice for each experiment) after the cells reached confluence. Cell’s viability was above 90%, as confirmed by Muse Cell Analyzer (Merck Millipore, Burlington, MA, USA). The final concentration of vincristine reached was 0.1 μM. The increase in the K562-MDR1 population was confirmed by flow cytometry and PCR.
# Cells were seeded in 96-well plates; after 24 h, medium with the appropriate drug concentration was added to each well. After 48 h, Tetrazolium Bromide (Sigma-Aldrich, St. Louis, MO, USA) was added to each well for 2–3 h. After that, cells were lysed and formazan crystals were dissolved. Absorbance was read using an iMark Microplate absorbance reader (Bio-Rad, Hercules, CA, USA). Results were calculated relative to cells treated with DMSO only. […]
# Cells were seeded in 96-well plates at 7 × 10^3 cells/well in 50 µL of complete medium (for K562 or K562-MDR1) or at 50 × 10^3 cells/well in 50 µL of complete medium (CD34+ cells). After 24 hours, 50 µL of medium with the appropriate drug concentration was added to each well. The final DMSO concentration per well was 1% for K562 and K562-MDR1 and 0.1% for CD34+ cells. After 48 hours, 20 µL of Tetrazolium Bromide (Sigma-Aldrich, St. Louis, MO, USA) at a concentration of 5 mg/mL was added to each well. Cells were incubated for 2-3 hours in a cell culture incubator, and then 10% SDS with 1% HCl was added to each well to lyse the cells and dissolve the formazan crystals. Plates were […]
# [7] = 20 mg/kg IP daily 14 days, mean ± SD
# [8] = 30 mg/kg IP daily 14 days, mean ± SD
# [9] = 30 mg/kg IP daily 14 days, mean
# [10] = IP 20 mg/kg, whole blood, female mouse
# [11] = IP 40 mg/kg, whole blood, female mouse
# [12] = IV 20 mg/kg, whole blood, female mouse
smiles,measurement,setting,value
"CCC12C(=O)C(CC)(C(c3ccccc3)=C1c1ccccc1)C1C(=O)N(CC(O)CNC(C)C)C(=O)C12 (centres unmarked) [BK124.1, 4-[2-hydroxy-3-(propan-2-ylamino)propyl]-1,7-diethyl-8,9-diphenyl-4-azatricyclo [5.2.1.02,6]dec-8-ene-3,5,10-trione]",Tumor weights,K562 cells [1]; 20 mg/kg IP daily 14 days,1.6 ± 1.6 g
same,Tumor weights,K562 cells [1]; 30 mg/kg IP daily 14 days,1.9 ± 1.8 g
same,Tumor growth versus control groups,"K562 cells [1]; BK124.1 20 or 30 mg/kg IP, imatinib 100 mg/kg orally, hydroxyurea 500 mg/kg IP, 1 x daily",effectively inhibited
same,Tumor volume,"K562 cells [1]; prolonged treatment (days 4-17), IP 20 or 30 mg/kg, comparable with hydroxyurea or imatinib",significant reduction in tumor volume
same,GRA,[2]; [7],39.3±9.8%
same,MON,[2]; [7],17.8±2.8%
same,HGB,[2]; [7],12.3 ± 0.7 g/dL
same,WBC,[2]; [7],14.9±4.7 103/μL
same,MPV,[2]; [7],5.0±0.2 μm3
same,RBC,[2]; [7],7.1±0.4 106/μL
same,RDW,[2]; [7],13.1±0.4%
same,MCH,[2]; [7],17.3 ± 0.3 pg
same,MCHC,[2]; [7],32.4 ± 0.3 g/dL
same,HCT,[2]; [7],38.0±2.3%
same,MCV,[2]; [7],53.3±0.5
same,LYMP,"[2]; 20 mg/kg IP daily 14 days, mean",42.9%
same,MON,[2]; [8],15.4±3.8%
same,HGB,[2]; [8],13.5 ± 0.5 g/dL
same,WBC,[2]; [8],10.5±5.0 103/μL
same,MPV,[2]; [8],5.1±0.2 μm3
same,RBC,[2]; [8],7.9±0.2 106/μL
same,RDW,[2]; [8],12.9±0.1%
same,MCH,[2]; [8],17.2 ± 0.4 pg
same,MCHC,[2]; [8],32.4 ± 0.6 g/dL
same,HCT,[2]; [8],41.7±0.9%
same,MCV,[2]; [8],52.8±1.0
same,GRA,[2]; [9],43.1%
same,LYMP,[2]; [9],41.6%
same,Blood morphology parameters,[2]; doses as in Table S3,within the norm
same,"Proportion of K562-MDR1 cells, mean value","K562-MDR1 cells [3]; 5 µM, 24 h, DMSO control 33.6%",68.3%
same,viability at 5 µM,"K562-MDR1 cells [3]; Homo sapiens, 5 µM, 24 h, DMSO control 89.2%, read-out: Living cells (viability), mean value",53.8%
same,MDR1 substrate,K562-MDR1 cells [3]; conclusion from K562-MDR1 data,not a MDR1 substrate
same,Toxicity to normal cells,HUVEC,non-toxic
same,MRT last,[4]; [10],5.09 h
same,half-life,[4]; [10],3.53 h
same,AUC(0-inf),[4]; [10],9580 ng·h/mL
same,C0,[4]; [10],1740 ng/mL
same,MRT last,[4]; [11],7.48 h
same,half-life,[4]; [11],5.18 h
same,AUC(0-inf),[4]; [11],23500 ng·h/mL
same,C0,[4]; [11],2760 ng/mL
same,MRT last,[4]; [12],4.78 h
same,half-life,[4]; [12],3.31 h
same,AUC(0-inf),[4]; [12],6620 ng·h/mL
same,C0,[4]; [12],1020 ng/mL
same,"AUClast, dose normalized",[4]; [10],3.24 kg·ng·h/mL/mg
same,"AUC∞, dose normalized",[4]; [10],479 kg·ng·h/mL/mg
same,"AUClast, dose normalized",[4]; [11],16.18 kg·ng·h/mL/mg
same,"AUC∞, dose normalized",[4]; [11],587 kg·ng·h/mL/mg
same,"AUClast, dose normalized",[4]; [12],2.50 kg·ng·h/mL/mg
same,"AUC∞, dose normalized",[4]; [12],331 kg·ng·h/mL/mg
same,half-life,"[4]; female, mouse, IP 20 mg/kg, blood",3.53 h
same,half-life,"[4]; female, mouse, IP 40 mg/kg, blood",5.18 h
same,half-life,"[4]; female, mouse, IV 20 mg/kg, blood",3.31 h
same,Induction of MDR1 in standard K562 cells,K562 cells [5],not able to induce MDR1; also recorded: unable to induce MDR1 expression
same,IC50,K562-MDR1 cells [6],2160 nM
